Laboratory results published in the supplement of paper PMC11061612.

How the values were obtained:
Assay in all cases: combination Emax (second highest fraction inhibited in the dose matrix, 72 h); higher = more inhibition; extreme values may be limits of the assay
[1] = system: SK-MG-1 (Low Grade Glioma)
Summary of the method: (§1)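 Bliss excess equals the observed combination effect minus the expected value EA + EB − EA·EB, where EA and EB are the effects of each agent alone. Combination Emax is the second-highest inhibition within the matrix. Inhibition was scaled from CellTiter-Glo 2.0 luminescence, with 0 set by vehicle wells and 1 by blank wells, after 72 hours of two-drug dosing of cells plated in 1536-well plates.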

[2] = system: NCI-H2141 (Small Cell Lung Carcinoma)
Summary of the method: as §1

[3] = system: CCK-81 (Colorectal Carcinoma)
Summary of the method: as §1

Hs-445 (Non-Cancerous) = system: Hs-445 (Non-Cancerous)
Summary of the method: as §1

U-2-OS (Osteosarcoma) = system: U-2-OS (Osteosarcoma)
Summary of the method: as §1

[4] = system: PANC-10-05 (Pancreatic Carcinoma)
Summary of the method: as §1

ARH-77 (Non-Cancerous) = system: ARH-77 (Non-Cancerous)
Summary of the method: as §1

[5] = system: NCI-H64 (Small Cell Lung Carcinoma)
Summary of the method: as §1

NY (Osteosarcoma) = system: NY (Osteosarcoma)
Summary of the method: as §1

GI-ME-N (Neuroblastoma) = system: GI-ME-N (Neuroblastoma)
Summary of the method: as §1

[6] = system: OS-RC-2 (Kidney Carcinoma)
Summary of the method: as §1

[7] = system: A549 (Lung Adenocarcinoma)
Summary of the method: as §1

LN-405 (Glioblastoma) = system: LN-405 (Glioblastoma)
Summary of the method: as §1

[8] = system: VCaP (Prostate Carcinoma)
Summary of the method: as §1

FU97 (Gastric Carcinoma) = system: FU97 (Gastric Carcinoma)
Summary of the method: as §1

[9] = system: SK-MES-1 (Squamous Cell Lung Carcinoma)
Summary of the method: as §1

[10] = system: COLO-824 (Breast Carcinoma)
Summary of the method: as §1

[11] = system: ECC10 (Gastric Carcinoma)
Summary of the method: as §1

[12] = system: CAPAN-2 (Pancreatic Carcinoma)
Summary of the method: as §1

[13] = system: NCI-H1693 (Lung Adenocarcinoma)
Summary of the method: as §1

Row | SMILES | combination Emax [1] | combination Emax [2] | combination Emax [3] | combination Emax (Hs-445 (Non-Cancerous)) | combination Emax (U-2-OS (Osteosarcoma)) | combination Emax [4] | combination Emax (ARH-77 (Non-Cancerous)) | combination Emax [5] | combination Emax (NY (Osteosarcoma)) | combination Emax (GI-ME-N (Neuroblastoma)) | combination Emax [6] | combination Emax [7] | combination Emax (LN-405 (Glioblastoma)) | combination Emax [8] | combination Emax (FU97 (Gastric Carcinoma)) | combination Emax [9] | combination Emax [10] | combination Emax [11] | combination Emax [12] | combination Emax [13]
1 | Cc1nc(Nc2ncc(C(=O)Nc3c(C)cccc3Cl)s2)cc(N2CCN(CCO)CC2)n1 [Dasatinib] + CC(=O)Nc1cccc(-n2c(=O)n(C3CC3)c(=O)c3c(Nc4ccc(I)cc4F)n(C)c(=O)c(C)c32)c1 [Trametinib] (first compound max 2 µM, 7x7, partner max 1 µM) | 0.65 | 0.129 | 0.641 | 0.517 | 0.9 | 0.877 | 0.635 | 0.185 | 0.738 | 0.49 | 0.353 | 0.97 | 0.468 | 0.0632 | 0.422 | 0.941 | 0.232 | 0.856 | 0.892 | 0.699
2 | COc1cccc2c1C(=O)c1c(O)c3c(c(O)c1C2=O)C[C@@](O)(C(=O)CO)C[C@@H]3O[C@H]1C[C@H](N)[C@H](O)[C@H](C)O1 [Doxorubicin] + Cc1cc2ncnn2cc1Nc1ncc2c(n1)n(C1CCOCC1)c(=O)n2C [AZD7648] (first compound max 1 µM, 7x7, partner max 10 µM) | 0.802 | 0.475 | 0.477 | 0.94 | 0.55 | 0.715 | 0.972 | 0.606 | 0.581 | 0.812 | 0.348 | 0.906 | 0.335 | 0.641 | 0.59 | 0.686 | 0.501 | 1 | 0.197 | 0.405
3 | COc1cc2ncnc(Nc3ccc(F)c(Cl)c3)c2cc1OCCCN1CCOCC1 [Gefitinib] + CC(C)n1c(=O)n(C)c2cnc3cc(F)c(-c4ccc(OCCCN5CCCCC5)nc4)cc3c21 [AZD1390] (first compound max 10 µM, 7x7, partner max 0.3 µM) | 0.072 | 0.0717 | 0.661 | 0.369 | 0.0294 | 0.202 | 0.272 | 0.152 | 0.239 | 0.0541 | 0.145 | 0.435 | 0.104 | 0.0675 | 0.149 | 0.408 | 0.366 | 0.12 | 0.148 | 0.419
4 | CS(=O)(=O)CCNCc1ccc(-c2ccc3ncnc(Nc4ccc(OCc5cccc(F)c5)c(Cl)c4)c3c2)o1 [Lapatinib] + C[C@@H](Oc1cc(-c2cnn(C3CCNCC3)c2)cnc1N)c1c(Cl)ccc(F)c1Cl [Crizotinib] (first compound max 10 µM, 7x7, partner max 10 µM) | 0.9 | 0.795 | 0.975 | 0.783 | 0.486 | 0.675 | 0.942 | 0.823 | 0.341 | 0.392 | 0.584 | 0.988 | 0.493 | 0.465 | 0.81 | 0.966 | 0.94 | 0.97 | 0.741 | 0.883
5 | CC(=O)c1c(C)c2cnc(Nc3ccc(N4CCNCC4)cn3)nc2n(C2CCCC2)c1=O [Palbociclib] + CC1(C)CCC(CN2CCN(c3ccc(C(=O)NS(=O)(=O)c4ccc(NCC5CCOCC5)c([N+](=O)[O-])c4)c(Oc4cnc5[nH]ccc5c4)c3)CC2)=C(c2ccc(Cl)cc2)C1 [Venetoclax] (first compound max 10 µM, 7x7, partner max 1 µM) | 0.282 | 0.196 | 0.106 | 0.746 | 0.142 | 0.275 | 0.725 | 0.17 | 0.0868 | 0.196 | 0.155 | 0.64 | 0.17 | 0.164 | 0.161 | 0.208 | 0.844 | 0.915 | 0.0393 | 0.33
6 | CC(=O)c1c(C)c2cnc(Nc3ccc(N4CCNCC4)cn3)nc2n(C2CCCC2)c1=O [Palbociclib] + Cc1c2c(nn1C)CSCc1cc(n(C)n1)CSc1cc(c3ccccc3c1)OCCCc1c(C(=O)O)n(C)c3c-2c(Cl)ccc13 [AZD5991] (first compound max 10 µM, 7x7, partner max 1 µM) | 0.3 | 0.309 | 0.941 | 0.337 | 0.274 | 0.329 | 0.556 | 0.213 | 0.534 | 0.332 | 0.232 | 0.64 | 0.208 | 0.855 | 0.222 | 0.266 | 0.708 | 0.911 | 0.139 | 0.431
